From the CheMixHub ionic liquid set

Experiment: xn = mol fraction of the nth substance listed
Settings: 101 kPa

CCCCCCCCCCCC[N+](C)(C)Cc1ccccc1.[Cl-] + NCC(=O)O + O
electrical conductivity [S/m]
Settings | 293.15 K | 298.15 K | 303.15 K | 308.15 K
x2 = 0.0008873, x1 = 0.0002851 | 0.0824 | 0.0924 | 0.103 | 0.116
x2 = 0.0008873, x1 = 0.0003053 | 0.0856 | 0.0961 | 0.107 | 0.12
x2 = 0.0008873, x1 = 0.0003201 | 0.0879 | 0.0988 | 0.11 | 0.124
x2 = 0.0008874, x1 = 0.0001939 | 0.0676 | 0.0753 | 0.0835 | 0.0926
x2 = 0.0008874, x1 = 0.0002197 | 0.072 | 0.0803 | 0.0893 | 0.0992
x2 = 0.0008874, x1 = 0.0002434 | 0.0759 | 0.0848 | 0.0944 | 0.105
x2 = 0.0008874, x1 = 0.0002654 | 0.0793 | 0.0888 | 0.099 | 0.11
x2 = 0.0008875, x1 = 5.836e-05 | 0.0233 | 0.0261 | 0.0289 | 0.0319
x2 = 0.0008875, x1 = 8.059e-05 | 0.0317 | 0.0355 | 0.0393 | 0.0433
x2 = 0.0008875, x1 = 0.0001014 | 0.0394 | 0.0441 | 0.0489 | 0.0538
x2 = 0.0008875, x1 = 0.0001212 | 0.0469 | 0.0524 | 0.0581 | 0.0639
x2 = 0.0008875, x1 = 0.0001444 | 0.0552 | 0.0617 | 0.0682 | 0.0751
x2 = 0.0008875, x1 = 0.0001686 | 0.0624 | 0.0695 | 0.077 | 0.085
x2 = 0.001759, x1 = 5.744e-05 | 0.0233 | 0.026 | 0.0289 | 0.0319
x2 = 0.001759, x1 = 7.9e-05 | 0.0314 | 0.0351 | 0.039 | 0.0429
x2 = 0.001759, x1 = 9.947e-05 | 0.0391 | 0.0437 | 0.0485 | 0.0534
x2 = 0.001759, x1 = 0.0001207 | 0.0469 | 0.0525 | 0.0582 | 0.064
x2 = 0.001759, x1 = 0.0001453 | 0.0558 | 0.0624 | 0.069 | 0.0758
x2 = 0.001759, x1 = 0.0001712 | 0.0628 | 0.0701 | 0.0775 | 0.0856
x2 = 0.001759, x1 = 0.0001971 | 0.0678 | 0.0758 | 0.0841 | 0.0931
x2 = 0.001759, x1 = 0.0002216 | 0.072 | 0.0806 | 0.0896 | 0.0995
x2 = 0.001759, x1 = 0.0002442 | 0.0758 | 0.0849 | 0.0946 | 0.105
x2 = 0.001759, x1 = 0.000265 | 0.079 | 0.0888 | 0.099 | –
x2 = 0.001759, x1 = 0.000284 | 0.0821 | 0.0923 | 0.103 | –
x2 = 0.001759, x1 = 0.0003018 | 0.0849 | 0.0956 | 0.107 | –
x2 = 0.001759, x1 = 0.0003141 | 0.087 | 0.098 | 0.11 | –

CC(=O)[O-].CCCC[NH2+]CCO + CCCC[n+]1ccn(C)c1.COP(=O)([O-])OC
viscosity [mPa·s]
Settings | x1 = 0.1014 | x1 = 0.172 | x1 = 0.2979 | x1 = 0.4067 | x1 = 0.4989 | x1 = 0.6316 | x1 = 0.7065 | x1 = 0.8011 | x1 = 0.8913 | x1 = 1
278.15 K | – | – | – | – | – | – | – | – | – | 6138
283.15 K | 1725 | 1555 | 1328 | 1208 | 1161 | 1288 | 1457 | 1793 | 2360 | 3634
288.15 K | 1103 | 997 | 855 | 781 | 751 | 825 | 930 | 1135 | 1475 | 2230
293.15 K | 730 | 662 | 571 | 522 | 503 | 548 | 614 | 741 | 952 | 1412
298.15 K | 499 | 454 | 392 | 360 | 346 | 375 | 417 | 499 | 633 | 921
303.15 K | 351 | 319.8 | 277.3 | 254.3 | 244.8 | 263.1 | 290.6 | 344 | 431 | 617
308.15 K | 253.2 | 231.1 | 200.9 | 184.2 | 177.2 | 189.1 | 207.4 | 243.2 | 301 | 423
313.15 K | 186.8 | 170.8 | 148.7 | 136.5 | 131.1 | 138.9 | 151.3 | 175.7 | 214.8 | 297
318.15 K | 140.7 | 128.9 | 112.4 | 103.1 | 98.9 | 104 | 112.6 | 129.5 | 156.5 | 212.7
323.15 K | 108.1 | 99.1 | 86.6 | 79.4 | 76 | 79.4 | 85.4 | 97.2 | 116.1 | 155.3
328.15 K | 84.5 | 77.6 | 67.8 | 62.2 | 59.4 | 61.6 | 65.9 | 74.2 | 87.7 | 115.3
333.15 K | 67.08 | 61.68 | 53.98 | 49.43 | 47.16 | 48.5 | 51.57 | 57.6 | 67.3 | 87
338.15 K | 54.05 | 49.76 | 43.58 | 39.88 | 37.96 | 38.75 | 40.98 | 45.33 | 52.4 | 66.7
343.15 K | 44.14 | 40.69 | 35.65 | 32.6 | 30.96 | 31.37 | 33 | 36.18 | 41.36 | 51.9
348.15 K | 36.5 | 33.69 | 29.51 | 26.96 | 25.56 | 25.71 | 26.9 | 29.24 | 33.08 | 40.87
353.15 K | 30.53 | 28.22 | 24.71 | 22.56 | 21.33 | 21.31 | 22.18 | 23.9 | 26.78 | 32.6
358.15 K | 25.8 | 23.88 | 20.91 | 19.07 | 17.99 | 17.86 | 18.48 | 19.75 | 21.91 | 26.29
363.15 K | 22.02 | 20.4 | 17.86 | 16.27 | 15.31 | 15.1 | 15.55 | 16.48 | 18.11 | 21.43
368.15 K | 18.97 | 17.58 | 15.4 | 14.01 | 13.15 | 12.89 | 13.21 | 13.89 | 15.12 | 17.63
373.15 K | 16.47 | 15.28 | 13.38 | 12.15 | 11.38 | 11.09 | 11.3 | 11.8 | 12.72 | 14.64
